Here are results for 12 compounds from patent US20250304549A1, “HYDROXYAMIDE DERIVATIVE AND USE THEREOF” (SICHUAN HUIYU PHARMACEUTICAL CO., LTD., priority 2022, published 2025).

A word on the IC50: it is the concentration that inhibits the measured activity by half.

The target of one test is LSD1 (Homo sapiens (Human), UniProt O60341). Description: In vitro enzyme inhibition assay - LSD1 (HTRF). Type of test: biochemical. In general terms: In TR-FRET formats the signal depends on donor and acceptor labels being close together.
The next test deals with pan-HDAC. Description: In vitro enzyme inhibition assay - HDAC (HDAC-Glo I/II), pan-HDAC. Type of test: biochemical. A digest of the protocol:
(§1)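 Eight compound concentrations (5-fold gradient; 1 mM DMSO stock) were assayed by HDAC-Glo I/II luminescence. IC50 was obtained by four-parameter fitting.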

Another test has as its system NCI-H69 cells. As to the kind of experiment: In vitro cell inhibition assay - NCI-H69 cell proliferation (CellTiter-Glo). Type of test: cell-based. As to conditions: Homo sapiens, NCI-H69, H69 small cell lung cancer cell proliferation. A digest of the protocol:
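Over 7 days at 37° C. and 5% CO2, cells grew in RPMI-640 supplemented with 20% FBS in the presence of eight 5-fold-spaced compound concentrations.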

The test system of a further test is NCI-H1417 cells. As to the kind of experiment: In vitro cell inhibition assay - H1417 cell proliferation (CellTiter-Glo). Type of test: cell-based. As to conditions: Homo sapiens, NCI-H1417, H1417 small cell lung cancer cell proliferation. A digest of the protocol:
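Cells exposed to 8 compound concentrations (5-fold dilutions) in BEGM with 10% FBS for 7 days at 37° C., 5% CO2. Viable cells measured by CellTiter-Glo luminescence; inhibition versus no-inhibitor and no-cell controls, IC50 fitted.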
(In general: Cellular ATP, detected with luciferase, serves as a proxy for viable cell number.)

In another test the test system is DU145 cells. Description: In vitro cell inhibition assay - DU145 cell proliferation (CellTiter-Glo). Type of test: cell-based. As to conditions: Homo sapiens, DU-145, Du145 prostate cancer cell proliferation. A digest of the protocol: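 Viability read-out was CellTiter-Glo luminescence after a 6-day, 37° C exposure of DU145 cells (1×10^3/well, 10% FBS RPMI-640) to 8 compound concentrations in 5-fold steps.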

The next test has as its target HDAC8 (Homo sapiens (Human), UniProt Q9BY41). Description: In vitro enzyme inhibition assay - HDAC (HDAC-Glo I/II), HDAC8. Type of test: biochemical. As to conditions: read-out: HDAC IC50 (nM) HDAC 8. A digest of the protocol: as §1
Another test deals with HDAC1 (Homo sapiens (Human), UniProt Q13547). Description: In vitro enzyme inhibition assay - HDAC (HDAC-Glo I/II), HDAC1. As to conditions: read-out: HDAC IC50 (nM) HDAC 1. Type of test: biochemical. A digest of the protocol: as §1
Chain of HDAC1 (Q13547 whole entry): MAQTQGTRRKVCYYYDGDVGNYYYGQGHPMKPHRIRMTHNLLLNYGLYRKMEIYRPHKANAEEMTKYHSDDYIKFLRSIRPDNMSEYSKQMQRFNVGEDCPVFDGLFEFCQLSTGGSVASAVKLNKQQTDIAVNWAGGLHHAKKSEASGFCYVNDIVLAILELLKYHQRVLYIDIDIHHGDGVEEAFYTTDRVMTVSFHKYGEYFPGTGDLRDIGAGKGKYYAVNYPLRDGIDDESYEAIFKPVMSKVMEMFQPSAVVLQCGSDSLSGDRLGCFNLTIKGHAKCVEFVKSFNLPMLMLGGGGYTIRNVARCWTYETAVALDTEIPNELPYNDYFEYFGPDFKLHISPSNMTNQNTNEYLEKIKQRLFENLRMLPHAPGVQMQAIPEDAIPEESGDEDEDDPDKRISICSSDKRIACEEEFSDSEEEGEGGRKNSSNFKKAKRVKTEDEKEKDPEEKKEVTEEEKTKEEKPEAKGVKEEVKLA
In the next test the test system is NCI-H526 cells. As to the kind of experiment: In vitro cell inhibition assay - NCI-H526 cell proliferation (CellTiter-Glo). Type of test: cell-based. As to conditions: Homo sapiens, NCI-H526, 120 h, H526 small cell lung cancer cell proliferation, 5 days. A digest of the protocol:
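NCI-H526 cells plated at 1×10^3 per well overnight, then treated with 8 concentrations (5-fold dilutions) in RPMI-640 with 10% FBS for 5 days at 37° C., 5% CO2. Viable cells quantified by CellTiter-Glo luminescence; IC50 fitted from inhibition rates relative to no-inhibitor and no-cell controls.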

Counter-ions that a name gives are not always drawn.

Chain of HDAC8 (Q9BY41 whole entry): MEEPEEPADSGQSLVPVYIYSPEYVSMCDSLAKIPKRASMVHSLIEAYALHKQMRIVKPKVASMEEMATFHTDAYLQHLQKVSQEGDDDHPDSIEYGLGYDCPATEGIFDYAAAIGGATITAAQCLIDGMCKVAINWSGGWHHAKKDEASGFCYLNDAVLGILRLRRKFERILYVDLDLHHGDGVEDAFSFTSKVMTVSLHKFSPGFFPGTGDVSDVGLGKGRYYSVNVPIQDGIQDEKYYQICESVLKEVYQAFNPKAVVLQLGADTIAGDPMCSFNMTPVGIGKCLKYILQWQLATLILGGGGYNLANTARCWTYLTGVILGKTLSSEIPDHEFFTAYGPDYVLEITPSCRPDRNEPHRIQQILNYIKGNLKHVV

As to `N#Cc1ccc(-c2c(-c3ccc(OC(F)(F)F)c(O)c3)cnc(N3CCC(NCc4ccc(/C=C/C(=O)NO)cc4)CC3)c2C#N)cc1F` [Example 116, (E)-3-(4-(1-(3-Cyano-4-(4-cyano-3-fluorophenyl)-5-(3-hydroxy-4-(trifluoromethoxy)phenyl)pyridin-2-yl)piperidin-4-yl)amino)methyl) phenyl)-N-hydroxyacrylamide formate], the IC50 against LSD1 came to 1.82 nM; against pan-HDAC, 12.7 nM; in the test on NCI-H69 cells it was 33.8 nM; in the test with NCI-H1417 cells, 4.89 nM; in the test with DU145 cells, 82 nM; at HDAC8, 212 nM. For the same compound, the IC50 was 5.59 nM on HDAC1 and 33.8 nM with NCI-H526 cells.
On to `COc1ccc(-c2cnc(N3CCC(NCc4ccc(/C=C/C(=O)NO)cc4)CC3)c(C#N)c2-c2ccc(C#N)cc2)cc1O` [Example 118, (E)-3-(4-((1-(3-Cyano-4-(4-cyanophenyl)-5-(3-hydroxy-4-methoxyphenyl)pyridin-2-yl)piperidin-4-yl)amino)methyl) phenyl)-N-hydroxyacrylamide formate], for which the IC50 at LSD1 came out at 0.58 nM; on pan-HDAC, 0.75 nM; in the test with NCI-H69 cells it was 3.24 nM; with NCI-H1417 cells it was 2.8 nM; in the test on DU145 cells, 11.8 nM; at HDAC8, 30.3 nM. Besides, the IC50 at HDAC1 amounted to 0.44 nM; in the test on NCI-H526 cells, 8.09 nM.
With `N#Cc1ccc(-c2c(-c3ccc(OC(F)F)c(O)c3)cnc(N3CCC(NCc4ccc(/C=C/C(=O)NO)cc4)CC3)c2C#N)cc1F` [Example 124, (E)-3-(4-(((1-(3-Cyano-4-(4-cyano-3-fluorophenyl)-5-(4-(difluoromethoxy)-3-hydroxyphenyl)pyridin-2-yl))piperidin-4-yl)amino)methyl) phenyl)-N-hydroxyacrylamide formate], the IC50 is 1.63 nM on LSD1; 7.69 nM at pan-HDAC; 18.3 nM in the test with NCI-H69 cells; 3.34 nM in the test on NCI-H1417 cells; 30.5 nM with DU145 cells; 179 nM on HDAC8. The IC50 on HDAC1 came out at 3.95 nM; in the test on NCI-H526 cells, 20.6 nM.
In the case of `N#Cc1ccc(-c2c(-c3ccc(Br)c(O)c3)cnc(N3CCC(NCc4ccc(/C=C/C(=O)NO)cc4)CC3)c2C#N)cc1F` [Example 127, (E)-3-(4-(((1-(5-(4-Bromo-3-hydroxyphenyl)-3-cyano-4-(4-cyano-3-fluorophenyl)pyridin-2-yl)piperidin-4-yl)amino)methyl)phenyl)-N-hydroxyacrylamide formate], the IC50 on LSD1 came to 1.2 nM; against pan-HDAC, 12.4 nM; in the test on NCI-H69 cells, 8.85 nM; with NCI-H1417 cells, 2.65 nM; in the test with DU145 cells it was 15.5 nM; on HDAC8, 423 nM. Further, the IC50 was 5.82 nM on HDAC1 and 15.4 nM with NCI-H526 cells.
With `COc1cc(F)c(-c2cnc(N3CCC(NCc4ccc(/C=C/C(=O)NO)cc4)CC3)c(C#N)c2-c2ccc(C#N)c(F)c2)cc1O` [Example 130, (E)-3-(4-((1-(3-Cyano-4-(4-cyano-3-fluorophenyl)-5-(2-fluoro-5-hydroxy-4-methoxyphenyl)pyridin-2-yl)piperidin-4-yl)amino)methyl) phenyl)-N-hydroxyacrylamide formate], the IC50 at LSD1 came to 1.89 nM; at pan-HDAC it was 6.13 nM; with NCI-H69 cells, 25.2 nM; in the test on NCI-H1417 cells it was 1.09 nM; in the test on DU145 cells it was 25 nM; at HDAC8, 220 nM. For the same compound, the figures for the 50% inhibitory concentration (IC50) at HDAC1 and with NCI-H526 cells were 0.77 nM and 22.8 nM, respectively.
On to `N#Cc1ccc(-c2c(-c3ccc(CO)c(O)c3)cnc(N3CCC(NCc4ccc(/C=C/C(=O)NO)cc4)CC3)c2C#N)cc1F` [Example 131, (E)-3-(4-(((1-(3-Cyano-4-(4-cyano-3-fluorophenyl)-5-(3-hydroxy-4-(hydroxymethyl)phenyl)pyridin-2-yl)piperidin-4-yl)amino)methyl)phenyl)-N-hydroxyacrylamide formate], for which the IC50 is 1.31 nM at LSD1; 1.57 nM on pan-HDAC; 2.59 nM in the test on NCI-H69 cells; 0.62 nM in the test with NCI-H1417 cells; 7.09 nM with DU145 cells; 46.6 nM at HDAC8. Moreover, the IC50 worked out at 0.22 nM at HDAC1 and 3.54 nM with NCI-H526 cells.
Consider `COc1ccc(-c2cnc(N3CCC(NCc4cnc(/C=C/C(=O)NO)cn4)CC3)c(C#N)c2-c2ccc(C#N)c(F)c2)cc1O` [Example 133, (E)-3-(5-(((1-(3-Cyano-4-(4-cyano-3-fluorophenyl)-5-(3-hydroxy-4-methoxyphenyl)pyridin-2-yl)piperidin-4-yl)amino)methyl)pyrazin-2-yl)-N-hydroxyacrylamide trifluoroacetate], for which the IC50 at LSD1 amounted to 22 nM; against pan-HDAC it was 11.8 nM; in the test on NCI-H69 cells it was 25.5 nM; in the test on NCI-H1417 cells, 5.42 nM; in the test on DU145 cells it was 128 nM; at HDAC8, 140 nM. Further, the results for the IC50 on HDAC1 and with NCI-H526 cells were 1.45 nM and 45.8 nM, respectively.
As for `COc1ccc(-c2cnc(N3CCC(NCc4ccc(/C=C/C(=O)NO)cc4)CC3)c(C#N)c2-c2ccc(C#N)cc2F)cc1O` [Example 134, (E)-3-(4-(((1-(3-Cyano-4-(4-cyano-2-fluorophenyl)-5-(3-hydroxy-4-methoxyphenyl)pyridin-2-yl)piperidin-4-yl)amino)methyl)phenyl)-N-hydroxyacrylamide formate], the IC50 was determined as 13.6 nM at LSD1; 3.55 nM at pan-HDAC; 8.37 nM with NCI-H69 cells; 5.1 nM with NCI-H1417 cells; 20.3 nM with DU145 cells; 46 nM on HDAC8. Also, the IC50 on HDAC1 amounted to 0.32 nM; in the test on NCI-H526 cells, 13.8 nM.
With `COc1ccc(-c2cnc(N3CCC(NCc4ncc(/C=C/C(=O)NO)cn4)CC3)c(C#N)c2-c2ccc(C#N)c(F)c2)cc1O` [Example 135, (E)-3-(2-(((1-(3-Cyano-4-(4-cyano-3-fluorophenyl)-5-(3-hydroxy-4-methoxyphenyl)pyridin-2-yl)piperidin-4-yl)amino)methyl)pyrimidin-5-yl)-N-hydroxyacrylamide formate], the half-maximal inhibitory concentration (IC50) at LSD1 is 3.16 nM; against pan-HDAC, 39.7 nM; in the test with NCI-H69 cells it was 199 nM; in the test on NCI-H1417 cells it was 6 nM; in the test on DU145 cells, 1580 nM; on HDAC8, 1010 nM. Further, the half-maximal inhibitory concentration (IC50) at HDAC1 stood at 17.3 nM; in the test with NCI-H526 cells it was 200 nM.
As for `N#Cc1ccc(-c2c(-c3ccc(O)c(O)c3)cnc(N3CCC(NCc4ccc(/C=C/C(=O)NO)cc4)CC3)c2C#N)cc1F` [Example 137, (E)-3-(4-(((1-(3-Cyano-4-(4-cyano-3-fluorophenyl)-5-(3,4-dihydroxyphenyl)pyridin-2-yl)piperidin-4-yl)amino)methyl)phenyl)-N-hydroxyacrylamide hydrochloride], the IC50 against LSD1 was determined as 27.8 nM; at pan-HDAC it was 6.04 nM; in the test on NCI-H69 cells it was 7.01 nM; in the test on NCI-H1417 cells, 5.43 nM; in the test with DU145 cells, 63.5 nM; at HDAC8, 107 nM. Also, the values for the IC50 at HDAC1 and in the test with NCI-H526 cells were 0.52 nM and 22.9 nM, respectively.
Consider `CC(C)(O)COc1ccc(-c2cnc(N3CCC(NCc4ccc(/C=C/C(=O)NO)cc4)CC3)c(C#N)c2-c2ccc(C#N)c(F)c2)cc1O` [Example 143, (E)-3-(4-(((1-(3-Cyano-4-(4-cyano-3-fluorophenyl)-5-(3-hydroxy-4-(2-hydroxy-2-methylpropoxy)phenyl)pyridin-2-yl)piperidin-4-yl)amino)methyl)phenyl)-N-hydroxyacrylamide formate], for which the concentration for half-maximal inhibition (IC50) at LSD1 was 0.1 nM; at pan-HDAC, 1.7 nM; with NCI-H69 cells, 16.8 nM; with NCI-H1417 cells it was 1.03 nM; with DU145 cells it was 23.7 nM; on HDAC8, 111 nM. In addition, the IC50 on HDAC1 is 1.25 nM; in the test with NCI-H526 cells it was 18.1 nM.
Turning to `COc1ccc(-c2cnc(N3CCC(NCc4ccc(/C=C/C(=O)NO)cc4)CC3)c(C)c2-c2ccc(C#N)c(F)c2)cc1O` [Example 144, (E)-3-(4-(((1-(4-(4-Cyano-3-fluorophenyl)-5-(3-hydroxy-4-methoxyphenyl)-3-methylpyridin-2-yl)piperidin-4-yl)amino)methyl)phenyl)-N-hydroxyacrylamide hydrochloride], the IC50 against LSD1 stood at 1.07 nM; against pan-HDAC it was 0.86 nM; in the test with NCI-H69 cells it was 11.2 nM; with NCI-H1417 cells, 11.2 nM; in the test with DU145 cells it was 9.28 nM; on HDAC8, 91.6 nM. For the same compound, the IC50 on HDAC1 is 0.21 nM; in the test with NCI-H526 cells, 8.4 nM.
